# In patent US20130338228A1, “METHODS FOR FA[…] RECOVERY AFTER A PERIOD OF DISUSE USING BETA-HYDROXY-BETA-METHYLBUTYRATE” (ABBOTT LABORATORIES, priority 2010, published 2013):
# Experiments:
# Type in all cases: in vivo, Fischer 344× Brown Norway rats
# [1] = Body weight of aged rats after hind limb suspension and reloading
# Procedure: (§1) Sixty-four aged (34 months of age) Fischer 344× Brown Norway rats are randomly assigned to a hind limb suspended (HS) group or a reloaded (R) group. The rats in each test group receive either: (1) 1 ml Ca-HMB (170 mg/ml distilled water); or (2) 1 ml of distilled water by gavage feeding per day. After one week, thirty-two rats (eight rats from the HS group receiving Ca-HMB; eight rats from the R group receiving Ca-HMB; eight rats from the HS group receiving water; and eight rats from the R group receiving water) are designated as part of the control groups (HS Control Group (16 rats) or R Control Group (16 rats)). The control groups maintain normal mobility throughout the test period, and are allowed to move freely around their cages. Data is collected from the HS Control Group after 14 days from initiation of the study prior to and following sacrifice. Data is collected from the R Control Group after 28 days from initiation of the study prior to and following sacrifice.
# (§2) The remaining thirty-two rats (16 rats in HS Group and 16 rats in R Group) continue to receive either Ca-HMB or water and are subjected to hind limb suspension for 14 days. For the hind limb suspension, tape is applied along the proximal one-third of the tail and then placed through a wire harness that is attached to a fishlike swivel at the top of a specially designed hind limb suspension cage. The suspension allowed the rats 360° of movement around the cage. Sterile gauze is wrapped around the tape and is subsequently covered with a thermoplastic material. […] The suspension height is monitored and adjusted to prevent contact between the hind limb and any supportive surface of the cage. […] The forelimbs maintain contact with a grid floor, which allows the animals to move, groom themselves, and obtain food and water freely.
# (§3) After 14 days of hind limb suspension, the hind limbs are released. The R Group is further allowed normal cage ambulation for an additional 14 days and then data is collected prior to and following sacrifice.
# (§4) Each animal is weighed at the beginning of the experiment, following 14 days of hind limb suspension and after 14 days of reloading. With the animals deeply anesthetized, the soleus and the plantaris muscles are removed from both limbs, then blotted, and weighed. Animals are euthanized following this procedure. A block obtained from the mid-belly of the muscle is embedded in optimal cutting temperature (OCT) compound (Tissue-Tek; Andwin Scientific, Addison, Ill.), snap frozen in liquid nitrogen-cooled isopentane, and stored at −80° C. The remainder of the muscle is snap frozen in liquid nitrogen and stored at −80° C. until needed for subsequent analyses.
# [2] = tested on: plantar flexor muscle group; assay: Maximal isometric force measurement after hind limb suspension and reloading
# Procedure: as §1
# (§5) The remaining thirty-two rats (16 rats in HS Group and 16 rats in R Group) continue to receive either Ca-HMB or water and are subjected to hind limb suspension for 14 days. For the hind limb suspension, tape is applied along the proximal one-third of the tail and then placed through a wire harness that is attached to a fishlike swivel at the top of a specially designed hind limb suspension cage. The suspension allowed the rats 360° of movement around the cage. […] The suspension height is monitored and adjusted to prevent contact between the hind limb and any supportive surface of the cage. […]
# Force measurements: All force measurements are made while the animals are anesthetized with 98% oxygen and 2% isoflurane gas. […] The maximal isometric force of the plantar flexor muscle group is evaluated by stimulating the tibial nerve using supramaximal square wave pulses that are 4 V, 100 Hz for a duration of 3 seconds using a SD9 stimulator (Grass Medical Instruments, Quincy, Mass.). Maximal force is determined using Labview based software. […]
# [3] = tested on: soleus and plantaris muscles; assay: Muscle wet weight after hind limb suspension and reloading
# Procedure: as §1, §2, §3, §4
# [4] = tested on: soleus and plantaris muscle fibers; assay: Muscle fiber cross sectional area (CSA) by planimetry
# Procedure: as §1, §2, §3
# Muscle fiber cross sectional area (CSA) is determined by planimetry from 750-1200 fibers that are obtained from four non-overlapping regions of each tissue cross-section is stained for lamina. Fiber CSA is calculated by the Image J software.
# [5] = tested on: TUNEL positive myonuclei in plantaris and soleus muscles; assay: Apoptotic myonuclei identified by TUNEL labeling (apoptotic index)
# Procedure: as §1
# as §5, with “cage.” for “cage. The suspension allowed the rats 360° of movement around the cage.”
# 10-μm-thick frozen cross sections from soleus and plantaris muscles are mounted on charged microscope slides (Fisher Scientific, Pittsburgh, Pa.). […] The number of TUNEL- and DAPI-positive nuclei that are immediately adjacent to, or beneath, the basal lamina is counted. Data is expressed as an apoptotic index, which is calculated by counting the number of TUNEL-positive nuclei divided by the total number of nuclei (i.e., DAPI-positive nuclei). The apoptotic index is determined from ˜1200 fibers, which are obtained from four non-overlapping regions of each tissue cross section.
# [6] = tested on: Bax; assay: Western immunoblot of Bax in hind limb muscles
# Procedure: (§6) Sixty-four aged (34 months of age) Fischer 344× Brown Norway rats are randomly assigned to a hind limb suspended (HS) group or a reloaded (R) group. The rats in each test group receive either: (1) 1 ml Ca-HMB (170 mg/ml distilled water); or (2) 1 ml of distilled water by gavage feeding per day. After one week, thirty-two rats (eight rats from the HS group receiving Ca-HMB; eight rats from the R group receiving Ca-HMB; eight rats from the HS group receiving water; and eight rats from the R group receiving water) are designated as part of the control groups (HS Control Group (16 rats) or R Control Group (16 rats)). […]
# (§7) The remaining thirty-two rats (16 rats in HS Group and 16 rats in R Group) continue to receive either Ca-HMB or water and are subjected to hind limb suspension for 14 days. […] The suspension height is monitored and adjusted to prevent contact between the hind limb and any supportive surface of the cage. […]
# (§8) Approximately seventy-five […] of muscle is homogenized in ice-cold RIPA buffer (1% Triton x-100, 150 mM NaCl, 5 mM EDTA, 10 mM Tris; pH 7.4), containing protease inhibitors (P8340, Sigma-Aldrich, St. Louis, Mo.), and phosphatase inhibitors (P2850; P5726, Sigma-Aldrich). The muscle homogenates are centrifuged at 1000×g for 5 minutes at 4° C., and the protein content of the supernatant is measured (500-0116; BioRad, Hercules, Calif.). […]
# [7] = tested on: cleaved caspase-9; assay: Western immunoblot of cleaved caspase-9 in hind limb muscles; conditions: plantaris and soleus muscles after both hind limb suspension and reloading, vs water-treated
# Procedure: as §6, §7, §8
# [8] = tested on: cleaved caspase-3; assay: Western immunoblot of cleaved caspase-3 in hind limb muscles
# Procedure: as §6, §7, §8
# [9] = tested on: Bcl-2; assay: Western immunoblot of Bcl-2 in hind limb muscles; conditions: plantaris and soleus after either hind limb suspension or reloading (both conditions increase Bcl-2 by about 100%)
# Procedure: as §6, §7, §8
# [10] = tested on: satellite cells/muscle precursor cells; assay: Activation of satellite cells by BrdU labeling during reloading
# Procedure: as §6, §7
# Activated, proliferated satellite cells/muscle precursor cells were identified by immunofluorescence staining on BrdU and laminin as described previously (Siu 2005). […] The sections were finally stained with 4′,6-diamidino-2-phenylindole (DAPI) and examined under a fluorescence microscope with excitation wavelengths of 330-380 nm for DAPI blue fluorescence, 485-585 nm for Cy3 red fluorescence, and 450-490 nm for fluorescein green fluorescence. […]
# [11] = HS induced, stated for both HMB and vehicle-treated animals, P<0.001
# [12] = plantaris and soleus muscles after both hind limb suspension and reloading, vs water-treated
smiles,measurement,setting,value
"CC(C)(O)CC(=O)O [HMB, beta-hydroxy-beta-methylbutyrate]",body weight lowered by hind limb suspension,"[1]; after 14 days of hind limb suspension, stated for both the HMB and water-treated groups",about 15%
same,decrease in body weight compared to the body weight of control animals,[1]; after 14 days of reloading,4%
same,body weight reduced relative to the first experimental day,[1]; control rats (normal mobility) treated for five weeks,7%
same,body weight reduced relative to the first experimental day,[1]; control rats (normal mobility) treated for three weeks,1.3%
same,reduction of maximal in vivo plantarflexor isometric force by hind limb suspension,[2]; after 14 days of hind limb suspension,23.7%
same,loss in maximal isometric plantarflexor force compared to isometric force in control animals,"[2]; after reloading, P<0.01 vs water-treated rats",27.3%
same,effect on loss of force,[2]; hind limb suspension and reloading,attenuate the loss of force
same,decrease in wet weight of the plantaris muscle,[3]; [11],19%
same,decrease in wet weight of the soleus muscle,[3]; [11],15%
same,effect on extent of HS-induced atrophy (muscle wet weight),"[3]; after 14 days of HS, relative to vehicle",did not significantly reduce
same,effect on plantaris muscle weight,[3]; after 14 days of reloading relative to vehicle-treated animals,significantly improved
same,effect against HS-induced loss in the soleus muscle (wet weight),"[3]; after HS, relative to vehicle-treated animals",did not provide protective effect
same,"HS-induced decrease in fiber CSA, plantaris","[4]; after HS, p<0.05 vs vehicle",26.4%
same,"HS-induced decrease in fiber CSA, soleus","[4]; after HS, p<0.05 vs vehicle",32.5%
same,frequency of fibers<1500 μm^2,"[4]; plantaris and soleus, recovered for 14 days following HS, Chi-squared analyses",significantly greater in the plantaris and soleus muscles of vehicle-treated animals as compared to HMB-treated animals
same,effect on fiber CSA after reloading as compared to HS,"[4]; plantaris or soleus muscles, after 14 days of reloading",did not further improve
same,"increase of apoptotic index by HS compared to ambulatory control animals, plantaris","[5]; after HS, p<0.05",3.0 fold
same,"increase of apoptotic index by HS compared to ambulatory control animals, soleus","[5]; after HS, p<0.05",1.8 fold
same,effect on TUNEL labeling in myonuclei of reloaded muscles,[5]; reloaded plantaris and soleus muscles,continued to suppress TUNEL labeling
same,Bax protein abundance in control muscles,"[6]; control muscles of ambulatory animals (HS Con and R Con), FIG. 7B",reduces the protein abundance
same,Bax protein abundance,[6]; [12],suppresses the protein abundance
same,cleaved caspase-9 protein abundance,[7],suppresses the protein abundance
same,cleaved caspase-3 protein abundance in control muscles,"[8]; control muscles of ambulatory animals (HS Con and R Con), FIG. 9B",reduces the protein abundance
same,cleaved caspase-3 protein abundance,[8]; [12],suppresses the protein abundance
same,"Bcl-2 protein, difference between HMB and water-treated muscles",[9],may not be a significant difference
same,number of BrdU positive nuclei relative to vehicle-treated rats,[10]; during recovery from muscle disuse,almost twice the number
same,number of BrdU-positive nuclei to total nuclei,"[10]; soleus, 14 day recovery period, mean+/−SE, p=0.001 vs control",8.1+/−2%
